pIC50: −log10 of the molar value.
Columns and labels:
[1] = biological target: purified αllbβ3 receptor (Homo sapiens, UniProt P05106+P08514); assay: similar competitive binding assay with 125I-echistatin on αllbβ3 receptor, used for the specificity index; conditions: Table 10; specificity index IC50 αllbβ3/ IC50 αvβ3
Experimental: To measure the relative affinity of the test compounds for αvβ3 receptors versus affinity for αllbβ3 receptors, similar competitive assays were carried out using purified αllbβ3 receptor and ^125I-echistatin (iodinated using the lactoperoxidase method). The specificity index, which is a measure of the relative binding affinity for αvβ3, versus αllbβ3, may be determined by dividing the IC50 value for αllbβ3 by the IC50 value for αvβ3.

[2] = biological target: T1, αvβ3 receptor (purified from human placenta) (Homo sapiens, UniProt P05106+P06756); assay: competition radioligand binding assay, 125I-echistatin to αvβ3 receptor; conditions: Table 10; αvβ3, inhibition of specific 125I-echistatin binding
T1 construct: αvβ3 receptor (purified from human placenta); from tissue; host or cells: human placenta
Experimental: The following assay procedure, which is a competition radioligand binding assay, was carried out to determine the activity of the foregoing compounds as αvβ3 antagonists. The competitive assay procedure described in Kumar, et. al., "Biochemical Characterization Of The Binding Of Echistatin To Integrin αvβ3 Receptor", Journal Of Pharmacology And Experimental Therapeutics, Vol. 283, No. 2, pp. 843-853 (1997) was employed. Thus, binding of ^125I-echistatin (radiolabeled by the chloramine-T method to a specific activity of 2000 Ci/mmol (Amersham, Chicago, Il.)) to αvβ3 receptor (purified from human placenta), both prepared as described in Kumar, et al., was competed by the compounds prepared in the foregoing examples. Purified αvβ3 receptor was coated onto Microlite-2 plates at a concentration of 50 ng/well. ^125I-echistatin was added to the wells to a final concentration of 0.05 nM in binding buffer (50 µl/well) in the presence of the competing test compound. The competing test compounds were employed at serially diluted concentrations ranging from 1 pM to 100 nM. After a 3 hour incubation at room temperature, the wells were washed, and radioactivity, reflecting binding by ^125 I-echistatin to αvβ3 receptors, was determined with Top Count (Packard). Each data point is an average of values from triplicate wells.
Specific binding of ^125I-echistatin was calculated as the difference between the amount of ^125I-echistatin bound in the absence (total binding) and the amount of ^125I-echistatin bound in the presence of a 200-fold molar excess of unlabeled echistatin (nonspecific binding). The efficacy of the test compounds for inhibiting specific binding of ^125I-echistatin to αvβ3 receptors was determined by plotting a graph of specific binding (y-axis) as a function of test compound concentration (x-axis). The concentration of test compound required to inhibit 50% of the specific binding (IC50) was determined from the plot. The IC50 may be directly converted mathematically to Ki, which is a measure of the receptor binding affinity of the compounds under the defined assay conditions.

SMILES	SPECIFICITY αIIbβ3 / αvβ3 [1]	pIC50 [2]
CC(C)C(=O)N(Cc1ccc(C(=O)NC[C@H](NC(=O)OCc2ccccc2)C(=O)O)cc1)Cc1nc2ccccc2[nH]1 [Example 5-13]	38	8.51
O=C(N[C@@H](CNC(=O)c1ccc(CN(Cc2nc3ccccc3[nH]2)C(=O)CCC2CCCC2)cc1)C(=O)O)OCc1ccccc1 [Example 5-14]	117	8.24
O=C(N[C@@H](CNC(=O)c1ccc(CN(Cc2nc3ccccc3[nH]2)C(=O)C2CCCCC2)cc1)C(=O)O)OCc1ccccc1 [Example 5-15]	95	8.37
O=C(N[C@@H](CNC(=O)c1ccc(CN(Cc2nc3ccccc3[nH]2)C(=O)CCc2ccccc2)cc1)C(=O)O)OCc1ccccc1 [Example 5-16]	899	8.36
CCOC(=O)CCC(=O)N(Cc1ccc(C(=O)NC[C@H](NC(=O)OCc2ccccc2)C(=O)O)cc1)Cc1nc2ccccc2[nH]1 [Example 5-17]	76	8.34
CC(=O)OC(C(=O)N(Cc1ccc(C(=O)NC[C@H](NC(=O)OCc2ccccc2)C(=O)O)cc1)Cc1nc2ccccc2[nH]1)c1ccccc1 (stereo partly drawn) [Example 5-18]	82	8.36
O=C(N[C@@H](CNC(=O)c1ccc(CN(Cc2nc3ccccc3[nH]2)C(=O)COc2ccccc2)cc1)C(=O)O)OCc1ccccc1 [Example 5-19]	34	8.05
CCOC(=O)N(Cc1ccc(C(=O)NC[C@H](NC(=O)OCc2ccccc2)C(=O)O)cc1)Cc1nc2ccccc2[nH]1 [Example 5-20]	15	8.14
COc1ccc(OC(=O)N(Cc2ccc(C(=O)NC[C@H](NC(=O)OCc3ccccc3)C(=O)O)cc2)Cc2nc3ccccc3[nH]2)cc1 [Example 5-21]	41	8.36
O=C(N[C@@H](CNC(=O)c1ccc(CN(Cc2nc3ccccc3[nH]2)C(=O)C2CC2c2ccccc2)cc1)C(=O)O)OCc1ccccc1 (stereo partly drawn) [Example 5-22]	26	8.19
CSCC(=O)N(Cc1ccc(C(=O)NC[C@H](NC(=O)OCc2ccccc2)C(=O)O)cc1)Cc1nc2ccccc2[nH]1 [Example 5-23]	22	8.26
CN(C)CC(=O)N(Cc1ccc(C(=O)NC[C@H](NC(=O)OCc2ccccc2)C(=O)O)cc1)Cc1nc2ccccc2[nH]1 [Example 5-24]	14	8.28
COCCC(=O)N(Cc1ccc(C(=O)NC[C@H](NC(=O)OCc2ccccc2)C(=O)O)cc1)Cc1nc2ccccc2[nH]1 [Example 5-25]	52	8.35
CCOCC(=O)N(Cc1ccc(C(=O)NC[C@H](NC(=O)OCc2ccccc2)C(=O)O)cc1)Cc1nc2ccccc2[nH]1 [Example 5-26]	91	8.46
O=C(N[C@@H](CNC(=O)c1ccc(CN(Cc2nc3ccccc3[nH]2)C(=O)Nc2ccccc2)cc1)C(=O)O)OCc1ccccc1 [Example 5-27]	481	8.81
O=C(N[C@@H](CNC(=O)c1ccc(CN(Cc2nc3ccccc3[nH]2)C(=O)NC2CCCCC2)cc1)C(=O)O)OCc1ccccc1 [Example 5-28]	1136	9.19
O=C(N[C@@H](CNC(=O)c1ccc(CN(Cc2nc3ccccc3[nH]2)C(=O)NCc2ccccc2)cc1)C(=O)O)OCc1ccccc1 [Example 5-29]	144	8.37
O=C(N[C@@H](CNC(=O)c1ccc(CN(Cc2nc3ccccc3[nH]2)C(=S)NCCc2ccccc2)cc1)C(=O)O)OCc1ccccc1 [Example 5-31]	80	8.22
CCOc1ccc(NC(=O)N(Cc2ccc(C(=O)NC[C@H](NC(=O)OCc3ccccc3)C(=O)O)cc2)Cc2nc3ccccc3[nH]2)cc1 [Example 5-32]	151	8.19
CN(Cc1ccc(C(=O)NC[C@H](NC(=O)OCc2ccccc2)C(=O)O)cc1)Cc1nc2ccccc2[nH]1 [Example 5-33]	128	7.77

SMILES	SPECIFICITY αIIbβ3 / αvβ3 [1]	pIC50 [2]
CC(C)(C)NC(=O)N(Cc1ccc(C(=O)NC[C@H](NC(=O)OCc2ccccc2)C(=O)O)cc1)Cc1nc2ccccc2[nH]1 [Example 5-34]	421	8.64
O=C(N[C@@H](CNC(=O)c1ccc(CN(Cc2nc3ccccc3[nH]2)C(=O)Nc2ccc(Cl)cc2)cc1)C(=O)O)OCc1ccccc1 [Example 5-35]	240	8.09
CC(NC(=O)N(Cc1ccc(C(=O)NC[C@H](NC(=O)OCc2ccccc2)C(=O)O)cc1)Cc1nc2ccccc2[nH]1)c1cccc2ccccc12 (stereo partly drawn) [Example 5-36]	129	7.93
O=C(N[C@@H](CNC(=O)c1ccc(CN(Cc2nc3ccccc3[nH]2)C(=O)Nc2cccc3ccccc23)cc1)C(=O)O)OCc1ccccc1 [Example 5-37]	203	8.28
O=C(N[C@@H](CNC(=O)c1ccc(CN(Cc2nc3ccccc3[nH]2)C(=O)Nc2ccc(-c3ccccc3)cc2)cc1)C(=O)O)OCc1ccccc1 [Example 5-38]	49	7.87
CCCNC(=O)N(Cc1ccc(C(=O)NC[C@H](NC(=O)OCc2ccccc2)C(=O)O)cc1)Cc1nc2ccccc2[nH]1 [Example 5-39]	223	8.51
O=C(N[C@@H](CNC(=O)c1ccc(CN(Cc2nc3ccccc3[nH]2)C(=O)NC23CC4CC(CC(C4)C2)C3)cc1)C(=O)O)OCc1ccccc1 [Example 5-40]	288	8.24
O=C(N[C@@H](CNC(=O)c1ccc(CN(Cc2nc3ccccc3[nH]2)C(=O)N2CCOCC2)cc1)C(=O)O)OCc1ccccc1 [Example 5-42]	39	8.74
CCNC(=O)N(Cc1ccc(C(=O)NC[C@H](NC(=O)OCc2ccccc2)C(=O)O)cc1)Cc1nc2ccccc2[nH]1 [Example 5-43]	585	8.66
O=C(N[C@@H](CNC(=O)c1ccc(CN(Cc2nc3ccccc3[nH]2)C(=O)NS(=O)(=O)c2ccc(Cl)cc2)cc1)C(=O)O)OCc1ccccc1 [Example 5-44]	66.3	7.71
CCOC(=O)CNC(=O)N(Cc1ccc(C(=O)NC[C@H](NC(=O)OCc2ccccc2)C(=O)O)cc1)Cc1nc2ccccc2[nH]1 [Example 5-45, N^3-[4-[(benzimidazol-2-yl)methyl][[(ethoxycarbonylmethyl)amino]-carbonyl]aminomethylbenzoyl]-N^2-Cbz-1-2,3-diaminopropionic acid]	1333	8.66
COc1ccc(NC(=S)N(Cc2ccc(C(=O)NC[C@H](NC(=O)OCc3ccccc3)C(=O)O)cc2)Cc2nc3ccccc3[nH]2)cc1 [Example 5-46]	1065	8.57
CCOC(=O)c1ccc(NC(=O)N(Cc2ccc(C(=O)NC[C@H](NC(=O)OCc3ccccc3)C(=O)O)cc2)Cc2nc3ccccc3[nH]2)cc1 [Example 5-47]	1252	8.66
CCOC(=O)[C@H](CCSC)NC(=O)N(Cc1ccc(C(=O)NC[C@H](NC(=O)OCc2ccccc2)C(=O)O)cc1)Cc1nc2ccccc2[nH]1 [Example 5-48]	2028	9.00
O=C(N[C@@H](CNC(=O)c1ccc(CN(Cc2nc3ccccc3[nH]2)C(=O)Nc2ccc(F)cc2)cc1)C(=O)O)OCc1ccccc1 [Example 5-49]	504	8.38
CCOC(=O)[C@H](C)NC(=O)N(Cc1ccc(C(=O)NC[C@H](NC(=O)OCc2ccccc2)C(=O)O)cc1)Cc1nc2ccccc2[nH]1 [Example 5-50]	805	8.52
CCOC(=O)[C@@H](NC(=O)N(Cc1ccc(C(=O)NC[C@H](NC(=O)OCc2ccccc2)C(=O)O)cc1)Cc1nc2ccccc2[nH]1)C(C)C [Example 5-51]	1210	8.96
CCOC(=O)[C@H](Cc1ccccc1)NC(=O)N(Cc1ccc(C(=O)NC[C@H](NC(=O)OCc2ccccc2)C(=O)O)cc1)Cc1nc2ccccc2[nH]1 [Example 5-52]	448	8.40
CCOC(=O)[C@H](CC(C)C)NC(=O)N(Cc1ccc(C(=O)NC[C@H](NC(=O)OCc2ccccc2)C(=O)O)cc1)Cc1nc2ccccc2[nH]1 [Example 5-53]	483	8.42
